Data taken from US20180313843A1, “SAMHD1 MODULATION FOR TREATING RESISTANCE TO CANCER THERAPY” (priority 2015, published 2018).
Values after ≈ are worked out from the molar mass of the structure shown. One block for each molecule: values may come before it.

Legend:
THP-1 −/− = test: Cell viability, Ara-C with or without 3-DU and other NAs, SAMHD1 knock-out; format: cell-based, human
Method: THP-1 CRISP/Cas9 control and SAMHD1 knock-out cells were provided by Prof. Veit Hornung and cultivated in RPMI supplemented with 10% FCS, 100 IU/ml penicillin, and […] streptomycin. PDX cells were thawed and cultivated as previously described (Vick, 2015).
(§1) Cell viability assay. Cell viability of the AML cell lines and primary AML cultures were determined by the 3-(4,5-dimethylthiazol-2-yl)-2,5-diphenyltetrazolium bromide (MTT) dye reduction assay after 96 hour incubation as described previously (reference 7). Due to lower cell proliferation frequencies of the primary cells the CellTiter-Glo® Luminescent Cell Viability Assay (Promega) was used according to manufacturer's instruction. Here, the number of viable cells was determined 96 hours post treatment based on the quantification of the ATP levels.

SAMHD1 = target: T1, SAMHD1 (Homo sapiens, UniProt Q9Y3Z3); test: Enzymatic in vitro assay with bacterially expressed SAMHD1 protein (triphosphohydrolase activity); format: biochemical; conditions: dGTP used as activator of SAMHD1
T1 construct: made in house
T1 sequence (Q9Y3Z3 whole entry): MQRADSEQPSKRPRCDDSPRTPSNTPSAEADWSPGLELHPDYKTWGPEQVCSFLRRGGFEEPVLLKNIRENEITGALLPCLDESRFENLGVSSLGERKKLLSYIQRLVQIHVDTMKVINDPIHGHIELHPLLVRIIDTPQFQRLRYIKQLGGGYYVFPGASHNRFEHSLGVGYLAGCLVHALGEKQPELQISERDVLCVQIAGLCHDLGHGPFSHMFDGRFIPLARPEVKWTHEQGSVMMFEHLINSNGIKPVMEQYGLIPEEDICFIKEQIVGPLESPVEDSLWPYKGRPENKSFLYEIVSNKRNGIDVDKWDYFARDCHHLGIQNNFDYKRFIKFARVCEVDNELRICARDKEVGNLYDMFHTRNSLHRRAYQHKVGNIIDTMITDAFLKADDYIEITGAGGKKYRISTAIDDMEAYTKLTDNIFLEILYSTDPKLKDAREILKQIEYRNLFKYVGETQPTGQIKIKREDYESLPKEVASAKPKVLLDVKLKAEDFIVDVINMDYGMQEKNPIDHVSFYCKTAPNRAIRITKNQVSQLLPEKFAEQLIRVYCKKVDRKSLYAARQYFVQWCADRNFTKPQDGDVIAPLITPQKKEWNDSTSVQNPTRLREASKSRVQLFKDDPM
Text: SAMHD1 hydrolyzes intracellular dNTPs resulting in a reduction of intracellular dNTP pools.

HEL SAMHD1 wt = test: Cell viability, Ara-C with or without 3-DU, SAMHD1 wt over-expression; format: cell-based, human; conditions: for dependence of anti-leukemic activity on expression levels of SAMHD1: THP-1 (−/−) vs (+/+), AML panel and HEL versus HEL SAMHD1 wt cells
AML cell lines = test: Cell viability assay (MTT), cytarabine in panel of AML cell lines; format: cell-based; conditions: Homo sapiens, read-out: IC50 values (concentrations inhibiting 50% of cell growth) of cytarabine; range over AML cell lines
Method: as §1

OCI-AML3 shSAMHD1 = test: Cell viability, Ara-C with or without 3-DU, SAMHD1 knock-down; format: cell-based, human; conditions: OCI-AML-3, SAMHD1 shRNA compared to control shRNA
BFTC 905 = test: Ara-C/SAMHD1-inhibitor combination treatment, urothelial carcinoma cells; format: cell-based; conditions: Homo sapiens, BFTC-905, read-out: IC50 value Ara-C
SIG-M5 cells = test: Cytarabine toxicity after SAMHD1 shRNA knock-down; format: cell-based, human; conditions: SIG-M5, SAMHD1 shRNA compared to control shRNA
[1] = test system: THP-1 (−/−) and THP-1 (+/+) cells; test: Cytarabine triphosphate measurement by liquid chromatography tandem mass spectrometry; format: cell-based, human; conditions: 10 μg/ml cytarabine for 6 h
Method: dNTP measurement. […] Subsequently, cells were washed twice in 1×PBS, pelleted and stored at −20° C. until measurement. The samples were analyzed at the Institute of Clinical Pharmacology (Goethe University Frankfurt) by liquid chromatography-electrospray ionization-tandem mass spectrometry as previously described (reference 8).
Briefly, the analytes were extracted by protein precipitation with methanol. An anion exchange HPLC column (BioBasic AX, Thermo) was used for the chromatographic separation and a 5500 QTrap (Sciex, Darmstadt, Germany) was used as analyzer, operating as triple quadrupole in positive multiple reaction monitoring (MRM) mode. Additional to the analytes reported in the publication, 13C3-Ara-CMP, 13C3-Ara-CDP and 13C3-Ara-CTP were quantified using the validated method and cytidine-^13C9, ^15N3-5′-triphosphate as internal standard (IS). The precursor-to-product ion transitions used as quantifiers were m/z 327.0→115.1 for 13C3-Ara-CMP, m/z 407.0→115.1 for 13C3-Ara-CDP and m/z 487.0→115.1 for 13C3-Ara-CTP. A calibration curve was constructed for the quantitation of 13C3-Ara-CMP while no calibration standards were commercially available for 13C3-Ara-CDP and 13C3-Ara-CTP. For this reason, these analytes were quantified semiquantitatively by comparing the peak area ratios (analyte/IS) determined in the differently treated samples.

THP-1 cells = test: Cytotoxic effects of cytarabine in VLP-treated THP-1 cells; format: cell-based, human; conditions: Vpx-VLPs treated THP-1 cells
[2] = test system: HELrAra-C, HL-60rAra-C and Molm-13rAra-C; test: Cytarabine cytotoxicity in Ara-C resistant AML sublines; format: cell-based, human
Method: Ara-C resistant cell lines THP-1, HEL, HL-60, Molm13, and Molt4 were established by continuous exposure to increasing drug concentrations and are part of the Resistant Cancer Cell Line (RCCL) collection (http://www.kent.ac.uk/stms/cmp/RCCL/RCCLabout). The generation of resistant cell lines required 1 to 2 years, depending on the cell line used. All cell lines were maintained in IMDM supplemented with 10% FCS (SIG-M5 20% FCS), […] L-Glutamine, 100 IU/ml penicillin, and […] streptomycin at 37° C. in a humidified 5% CO2 incubator. 293T cells were maintained as previously described (Keppler et al).
as §1
Remarkably, expression levels of SAMHD1 were increased in resistant cells relative to the parental cell lines (FIGS. 8A and B).

glioma cell line U251-MG = test: Effect of Vpx-VLPs on cytotoxic activity of cytarabine in glioma cells; format: cell-based; conditions: U251-MG treated with Vpx-VLPs
[3] = test system: intracellular Ara-CTP, CTP and dCTP levels; test: Effect of 3-DU and Ara-C on intracellular triphosphate levels; format: cell-based; conditions: 3-DU treatment in combination with Ara-C
Method: dNTP measurement. 5×10^5 cells were treated with 10 μg/ml Ara-C 13C3 (Santa Cruz) and incubated at 37° C. in a humidified 5% CO2 incubator for 6 hours. Subsequently, cells were washed twice in 1×PBS, pelleted and stored at −20° C. until measurement. The samples were analyzed at the Institute of Clinical Pharmacology (Goethe University Frankfurt) by liquid chromatography-electrospray ionization-tandem mass spectrometry as previously described (reference 8).
Briefly, the analytes were extracted by protein precipitation with methanol. […] Additional to the analytes reported in the publication, 13C3-Ara-CMP, 13C3-Ara-CDP and 13C3-Ara-CTP were quantified using the validated method and cytidine-^13C9, ^15N3-5′-triphosphate as internal standard (IS). The precursor-to-product ion transitions used as quantifiers were m/z 327.0→115.1 for 13C3-Ara-CMP, m/z 407.0→115.1 for 13C3-Ara-CDP and m/z 487.0→115.1 for 13C3-Ara-CTP. A calibration curve was constructed for the quantitation of 13C3-Ara-CMP while no calibration standards were commercially available for 13C3-Ara-CDP and 13C3-Ara-CTP. For this reason, these analytes were quantified semiquantitatively by comparing the peak area ratios (analyte/IS) determined in the differently treated samples. […]

Molecule: Nc1nc(F)nc2c1ncn2[C@@H]1O[C@H](CO)[C@@H](O)[C@@H]1O [fludarabine]
- IC50 lower in THP-1 (−/−) cells than in THP-1 (+/+) cells (THP-1 −/−): 5 fold

Molecule: cytarabine triphosphate
- substrate or activator of SAMHD1's triphosphohydrolase activity (SAMHD1): direct substrate, but not as an activator

Molecule: Nc1nc2c(ncn2[C@@H]2O[C@H](CO)[C@@H](O)[C@@H]2O)c(=O)[nH]1 [Ara-G]
- dependence of anti-leukemic activity on expression levels of SAMHD1 (HEL SAMHD1 wt): depends on expression levels of SAMHD1 albeit to a lesser extent than for cytarabine

- IC50 lower in THP-1 (−/−) cells than in THP-1 (+/+) cells (THP-1 −/−): 2 fold
Molecule: Nc1nc(Cl)nc2c1ncn2[C@@H]1O[C@H](CO)[C@@H](O)[C@@H]1F [clofarabine]
- dependence of anti-leukemic activity on expression levels of SAMHD1 (HEL SAMHD1 wt): depends on expression levels of SAMHD1 albeit to a lesser extent than for cytarabine

- IC50 lower in THP-1 (−/−) cells than in THP-1 (+/+) cells (THP-1 −/−): 5 fold
Molecule: COc1nc(N)nc2c1ncn2[C@@H]1O[C@H](CO)[C@@H](O)[C@@H]1O [nelarabine]
- dependence of anti-leukemic activity on expression levels of SAMHD1 (HEL SAMHD1 wt): depends on expression levels of SAMHD1 albeit to a lesser extent than for cytarabine

Molecule: Nc1ccn([C@@H]2O[C@H](CO)[C@@H](O)[C@@H]2O)c(=O)n1 [Ara-C, cytarabine]
- IC50 (AML cell lines): 0.0078 to 0.56 µg/mL (≈ 0.0321 to 2.3 µM)
- increase of cytarabine toxicity in SAMHD1 knock-out cells (THP-1 −/−; THP-1 (−/−) relative to control THP-1 (+/+)): about 50 fold
- increase of cytarabine toxicity by SAMHD1 knock-down (OCI-AML3 shSAMHD1): about 6 fold
- decrease of sensitivity to cytarabine by wt SAMHD1 over-expression (HEL SAMHD1 wt; HEL wt SAMHD1 compared to parental HEL or HEL SAMHD1 D207N): about 70 fold
- IC50 (BFTC 905): 0.021 µg/mL
- increase of cytarabine toxicity by SAMHD1 knock-down (SIG-M5 cells): ~9 fold
- cytarabine triphosphate amounts accumulated, THP-1(−/−) compared with THP-1(+/+) [1]: About 20 fold
- increase of cytarabine's anti-leukemic activity (THP-1 cells): about 20 fold
- IC50 ([2]; Homo sapiens, read-out: IC50 values of cytarabine, range over highly resistant sublines of HEL, HL-60 and MOLM-13): 24 to 94 µg/mL (≈ 98.7 to 386 µM)
- toxicity of cytarabine after reduction of SAMHD1 levels using Vpx-VLPs ([2]; all three cell lines tested): increased toxicity
- enhancement of the anti-tumoral activity of cytarabine (glioma cell line U251-MG): up to 10 fold

Molecule: O=C1C=CN([C@@H]2O[C@H](CO)[C@@H](O)[C@H]2O)C(=O)C1 [3-DU, 3-deazauridin]
- intracellular Ara-CTP levels [3]: strongly increased
- intracellular cytodine-triphosphate (CTP) and dCTP levels [3]: reducing
